Among the data in US9957299B2, “Peptidomimetic macrocycles” (AILERON THERAPEUTICS, INC., priority 2010, dated 2018) are helicity and IC50 values, retold here.

Numbered stars: 1 amine (or outer) side, 2 acyl side, 3 side chain; on linkers, the order of the positions; unused ones are H or OH. Bridge positions count the residues as written; N and C are the ends. Square brackets hold non-standard residues; d marks the D form. Peptide text beside a SMILES is read from it. * marks the point of attachment. X2 = C[C@@](Cc1c[nH]c2cc(Cl)ccc12)(N[*:1])C(=O)[*:2]; Trp(6-Cl) = N[C@@H](Cc1c[nH]c2cc(Cl)ccc12)C(=O)O; R8 = C=CCCCCCC[C@@](C)(N)C(=O)O; S5 = C=CCCC[C@](C)(N)C(=O)O; X1 = COCCOCCOCCOC(=O)*; Ac3c = NC1(C(=O)O)CC1; Aib = CC(C)(N)C(=O)O

Test system in one data set: not listed separately
Description: circular dichroism. The following applies: aqueous, '0% TFE' (buffer not stated; general: 50 mM potassium phosphate pH 7 or water); pH ns; ns °C; 25-50 uM (general text).
In the case of `CC(=O)N[C@]1(C)CCCCCCCCCCC[C@@](C)(C(=O)N[C@@H](CC(C)C)C(=O)N[C@@H](Cc2c[nH]c3ccccc23)C(=O)N[C@@H](CCCNC(=N)N)C(=O)N[C@@H](CC(C)C)C(=O)N[C@@H](CC(C)C)C(=O)NC(C)(C)C(=O)N[C@@H](CCC(N)=O)C(=O)N[C@@H](CC(N)=O)C(N)=O)NC(=O)[C@H](CO)NC(=O)[C@H](Cc2ccccc2)NC(=O)[C@H]([C@@H](C)O)NC(=O)[C@H](CCC(N)=O)NC(=O)[C@H](CCC(N)=O)NC(=O)[C@H](CO)NC1=O`, the helicity was found to be 66.7%. The same measure, in the same setting: as for Ac-TSFAEYWNLLSP-NH2, the figure is 6.8%. With `CC(=O)N[C@@H](CC(C)C)C(=O)N[C@H](C(=O)N[C@@H](Cc1ccccc1)C(=O)N[C@]1(C)CCCCCCCCCCC[C@@](C)(C(=O)N[C@@H](CO)C(N)=O)NC(=O)[C@H](CC(C)C)NC(=O)[C@H](CCC(N)=O)NC(=O)[C@H](CCCNC(=N)N)NC(=O)[C@H](Cc2c[nH]c3cc(Cl)ccc23)NC(=O)[C@H](Cc2ccc(O)cc2)NC(=O)[C@H](Cc2c[nH]cn2)NC1=O)[C@@H](C)O`, the helicity worked out at 74.2%. The same measure, in the same setting: as for `CC(=O)N[C@@H](CC(C)C)C(=O)N[C@H](C(=O)N[C@@H](Cc1ccccc1)C(=O)N[C@]1(C)CCCCCCC=CCCC[C@@](C)(C(=O)N[C@@H](CO)C(N)=O)NC(=O)[C@H](CC(C)C)NC(=O)[C@H](CCC(N)=O)NC(=O)[C@H](CCCNC(=N)N)NC(=O)[C@H](Cc2c[nH]c3ccccc23)NC(=O)[C@H](Cc2ccc(O)cc2)NC(=O)[C@H](Cc2c[nH]cn2)NC1=O)[C@@H](C)O` (Ac-LTF[R8]HYWRQL[S5]S-NH2; staple 4-11), the figure is 59.5%; as for `CC(=O)N[C@@H](CCC(N)=O)C(=O)N[C@@H](CO)C(=O)N[C@@H](CCC(N)=O)C(=O)N[C@@H](CCC(N)=O)C(=O)N[C@H](C(=O)N[C@@H](Cc1ccccc1)C(=O)N[C@]1(C)CCCCCCC=CCCC[C@@](C)(C(=O)N[C@@H](CCC(N)=O)C(=O)N[C@@H](CC(N)=O)C(N)=O)NC(=O)[C@H](CC(C)C)NC(=O)[C@H](CC(C)C)NC(=O)[C@H](CCCNC(=N)N)NC(=O)[C@](C)(Cc2c[nH]c3cc(Cl)ccc23)NC(=O)[C@H](CC(C)C)NC(=O)[C@H](CC(N)=O)NC1=O)[C@@H](C)O` (Ac-QSQQTF[R8]NL[X2]RLL[S5]QN-NH2; staple 7-14), 60.9%. The same measure, in the same setting: as for `CSCC[C@H](NC(=O)[C@H](Cc1ccccc1)NC(C)=O)C(=O)NC(C)(C)C(=O)N[C@@H](Cc1ccc(O)cc1)C(=O)N[C@@H](Cc1c[nH]c2cc(Cl)ccc12)C(=O)N[C@@H](CCC(=O)O)C(=O)NC1(C(=O)N[C@@H](CC(C)C)C(N)=O)CC1` (Ac-FM[Aib]Y[Trp(6-Cl)]E[Ac3c]L-NH2), the figure is -3.6%.

The target in another data set is HDM2 (Homo sapiens, UniProt Q00987). Description: FP Competition Blinding Assay | HDM2 IC50 (nM).
Sequence of HDM2 (Q00987 whole entry, looked up): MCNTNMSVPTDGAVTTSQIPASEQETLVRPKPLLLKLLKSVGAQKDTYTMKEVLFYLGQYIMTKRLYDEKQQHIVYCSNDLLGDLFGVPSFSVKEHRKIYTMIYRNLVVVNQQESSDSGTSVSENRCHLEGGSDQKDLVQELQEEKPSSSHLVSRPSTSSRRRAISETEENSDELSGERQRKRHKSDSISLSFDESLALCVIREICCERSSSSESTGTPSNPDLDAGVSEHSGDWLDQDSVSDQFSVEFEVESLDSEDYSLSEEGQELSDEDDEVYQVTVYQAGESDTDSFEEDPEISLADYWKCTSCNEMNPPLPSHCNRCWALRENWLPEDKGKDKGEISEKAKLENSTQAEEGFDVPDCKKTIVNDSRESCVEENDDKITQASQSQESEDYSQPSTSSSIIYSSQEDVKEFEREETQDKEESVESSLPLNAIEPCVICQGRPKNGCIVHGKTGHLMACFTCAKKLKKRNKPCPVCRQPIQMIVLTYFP
Details: not given
By IC50 is commonly meant the concentration that inhibits the measured activity by half. A higher IC50 goes with weaker potency. As for `CC(=O)N[C@@H](Cc1c[nH]c2ccccc12)C(=O)N[C@H](C(=O)N[C@@H](Cc1ccccc1)C(=O)N[C@]1(C)CCCCCCC=CCCC[C@@](C)(C(=O)N[C@@H](CO)C(N)=O)NC(=O)[C@H](CC(C)C)NC(=O)[C@H](CCC(N)=O)NC(=O)[C@H](C)NC(=O)[C@H](Cc2c[nH]c3ccccc23)NC(=O)[C@H](Cc2ccc(O)cc2)NC(=O)[C@H](Cc2c[nH]cn2)NC1=O)[C@@H](C)O` [SP-256, Ac- W T F $r8 H Y W A Q L $ S -NH2] (Ac-WTF[R8]HYWAQL[S5]S-NH2; staple 4-11), the IC50 is 185 nM. The same measure, in the same setting: in the case of `CC(=O)N[C@@H](CC(C)C)C(=O)N[C@H](C(=O)N[C@@H](Cc1ccccc1)C(=O)N[C@]1(C)CCCCCCC=CCCC[C@@](C)(C(=O)N[C@@H](CO)C(N)=O)NC(=O)[C@H](CC(C)C)NC(=O)[C@H](CCC(N)=O)NC(=O)[C@H](C)NC(=O)[C@H](Cc2c[nH]c3ccccc23)NC(=O)[C@H](Cc2ccc(O)cc2)NC(=O)[C@H](C(C)C)NC1=O)[C@@H](C)O` [SP-266, Ac- L T F $r8 V Y W A Q L $ S -NH2] (Ac-LTF[R8]VYWAQL[S5]S-NH2; staple 4-11) it was 66 nM; in that of `CC(=O)N[C@@H](CC(C)C)C(=O)N[C@H](C(=O)N[C@@H](Cc1ccccc1)C(=O)N[C@]1(C)CCCCCCC=CCCC[C@@](C)(C(=O)N[C@@H](CO)C(N)=O)NC(=O)[C@H](CC(C)C)NC(=O)[C@H](CCC(N)=O)NC(=O)[C@H](CO)NC(=O)[C@H](Cc2c[nH]c3ccccc23)NC(=O)[C@H](Cc2ccc(O)cc2)NC(=O)[C@H](C)NC1=O)[C@@H](C)O` [SP-360, Ac- L T F $r8 A Y W S Q L $ S -NH2] (Ac-LTF[R8]AYWSQL[S5]S-NH2; staple 4-11), 90 nM. Consider `COCCOCCOCCOC(=O)N[C@@H](CC(C)C)C(=O)N[C@H](C(=O)N[C@@H](Cc1ccccc1)C(=O)N[C@]1(C)CCCCCCC=CCCC[C@@](C)(C(=O)N[C@@H](CO)C(N)=O)NC(=O)[C@H](CC(C)C)NC(=O)[C@H](CCC(N)=O)NC(=O)[C@H](C)NC(=O)[C@H](Cc2c[nH]c3ccccc23)NC(=O)[C@H](Cc2ccc(O)cc2)NC(=O)[C@H](C)NC1=O)[C@@H](C)O` [SP-580, mdPEG3-L T F $r8 A Y W A Q L $ S -NH2] (X1-LTF[R8]AYWAQL[S5]S-NH2; staple 4-11), for which the IC50 is 81 nM. On the same count and under the same terms, as for `CC(=O)N[C@@H](CC(C)C)C(=O)N[C@H](C(=O)N[C@@H](Cc1ccccc1)C(=O)N[C@]1(C)CCCCCCC=CCCC[C@@](C)(C(=O)N[C@@H](CO)C(N)=O)NC(=O)[C@H](CC(C)C)NC(=O)[C@H](CCC(N)=O)NC(=O)[C@H](C)NC(=O)[C@H](Cc2c[nH]c3ccccc23)NC(=O)[C@H](Cc2ccc(O)cc2)NC(=O)[C@H](C)NC1=O)[C@@H](C)O` [SP-191, Ac- L T F $r8 A Y W A Q L $ S -NH2] (Ac-LTF[R8]AYWAQL[S5]S-NH2; staple 4-11), the figure is 74.9 nM; as for `CC(=O)N[C@@H](CC(C)C)C(=O)N[C@H](C(=O)N[C@@H](Cc1ccccc1)C(=O)N[C@]1(C)CCCCCCC=CCCC[C@@](C)(C(=O)N[C@@H](CO)C(N)=O)NC(=O)[C@H](CC(C)C)NC(=O)[C@H](CCC(N)=O)NC(=O)[C@H](C)NC(=O)[C@H](Cc2c[nH]c3ccccc23)NC(=O)[C@H](Cc2ccc(O)cc2)NC(=O)[C@H](CCC(=O)O)NC1=O)[C@@H](C)O` [SP-512, Ac- L T F $r8 E Y W A Q F $ S -NH2] (Ac-LTF[R8]EYWAQL[S5]S-NH2; staple 4-11), 16.2 nM.

In the next data set the target is HDMx (Homo sapiens, UniProt O15151). The experiment in a line: FP Competition Blinding Assay | HDMx IC50 (nM).
Sequence of HDMx (O15151 whole entry, looked up): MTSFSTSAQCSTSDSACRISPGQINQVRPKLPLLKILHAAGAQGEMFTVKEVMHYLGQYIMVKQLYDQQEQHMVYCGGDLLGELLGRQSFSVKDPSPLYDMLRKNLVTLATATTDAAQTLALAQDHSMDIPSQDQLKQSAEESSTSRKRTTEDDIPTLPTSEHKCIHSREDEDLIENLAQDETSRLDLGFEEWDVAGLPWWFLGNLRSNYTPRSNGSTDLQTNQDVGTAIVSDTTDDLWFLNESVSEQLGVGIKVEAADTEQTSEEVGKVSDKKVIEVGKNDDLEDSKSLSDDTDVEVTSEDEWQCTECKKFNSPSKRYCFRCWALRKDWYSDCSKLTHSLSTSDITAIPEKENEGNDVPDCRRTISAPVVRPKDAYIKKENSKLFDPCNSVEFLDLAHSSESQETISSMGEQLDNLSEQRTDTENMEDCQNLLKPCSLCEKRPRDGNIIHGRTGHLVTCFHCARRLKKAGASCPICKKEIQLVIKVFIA
Details: not given
For the compound `COCCOCCOCCOC(=O)N[C@@H](CC(C)C)C(=O)N[C@H](C(=O)N[C@@H](Cc1ccccc1)C(=O)N[C@]1(C)CCCCCCC=CCCC[C@@](C)(C(=O)N[C@@H](CO)C(N)=O)NC(=O)[C@H](CC(C)C)NC(=O)[C@H](CCC(N)=O)NC(=O)[C@H](C)NC(=O)[C@H](Cc2c[nH]c3ccccc23)NC(=O)[C@H](Cc2ccc(O)cc2)NC(=O)[C@H](C)NC1=O)[C@@H](C)O` [SP-580, mdPEG3-L T F $r8 A Y W A Q L $ S -NH2] (X1-LTF[R8]AYWAQL[S5]S-NH2; staple 4-11), the 50% inhibitory concentration (IC50) amounted to 195 nM. In turn, `CC(=O)N[C@@H](Cc1ccccc1)C(=O)N[C@]1(C)CCCCCCC=CCCC[C@@](C)(C(=O)N[C@@H](C)C(N)=O)NC(=O)[C@H](CC(C)C)NC(=O)C2(CC2)NC(=O)[C@H](CCC(=O)O)NC(=O)[C@H](Cc2c[nH]c3cc(Cl)ccc23)NC(=O)[C@H](Cc2ccc(O)cc2)NC(=O)[C@H](C)NC1=O` [SP-128, Ac- F $r8 A Y 6clW E Ac3c L $ A -NH2] (Ac-F[R8]AY[Trp(6-Cl)]E[Ac3c]L[S5]A-NH2; staple 2-9) showed an IC50 of 967 nM.

As for `CC(=O)N[C@@H](CC(C)C)C(=O)N[C@H](C(=O)N[C@@H](Cc1ccccc1)C(=O)N[C@]1(C)CCCCCCC=CCCC[C@@](C)(C(=O)N[C@@H](C)C(N)=O)NC(=O)[C@H](CC(C)C)NC(=O)[C@H](CCC(N)=O)NC(=O)[C@H](C)NC(=O)[C@H](Cc2c[nH]c3ccccc23)NC(=O)[C@H](Cc2ccc(O)cc2)NC(=O)[C@H](C)NC1=O)[C@@H](C)O` [SP-194, Ac- L T F $r8 A Y W A Q L $ A -NH2] (Ac-LTF[R8]AYWAQL[S5]A-NH2; staple 4-11), the IC50 worked out at 463 nM. On the same count and under the same terms, in the case of `CC(=O)N[C@@H](CC(C)C)C(=O)N[C@H](C(=O)N[C@@H](Cc1ccccc1)C(=O)N[C@]1(C)CCCCCCC=CCCC[C@@](C)(C(=O)N[C@@H](CO)C(N)=O)NC(=O)[C@H](CC(C)C)NC(=O)[C@H](CCC(N)=O)NC(=O)[C@H](C)NC(=O)[C@H](Cc2c[nH]c3ccccc23)NC(=O)[C@H](Cc2ccc(O)cc2)NC(=O)[C@H](Cc2ccccc2)NC1=O)[C@@H](C)O` [SP-267, Ac- L T F $r8 F Y W A Q L $ S -NH2] (Ac-LTF[R8]FYWAQL[S5]S-NH2; staple 4-11) it was 318 nM; in that of `CC(=O)N[C@@H](CC(C)C)C(=O)N[C@H](C(=O)N[C@@H](Cc1ccccc1)C(=O)N[C@]1(C)CCCCCCC=CCCC[C@@](C)(C(=O)N[C@@H](CO)C(N)=O)NC(=O)[C@H](CC(C)C)NC(=O)[C@H](CCC(N)=O)NC(=O)[C@H](C)NC(=O)[C@H](Cc2c[nH]c3ccccc23)NC(=O)[C@H](Cc2ccc(O)cc2)NC(=O)[C@H](C)NC1=O)[C@@H](C)O` [SP-191, Ac- L T F $r8 A Y W A Q L $ S -NH2] (Ac-LTF[R8]AYWAQL[S5]S-NH2; staple 4-11), 97 nM.
